Reference: US9695176B2, “Substituted imidazo[1,5-a]pyrazines as CGRP receptor antagonists” (BRISTOL-MYERS SQUIBB COMPANY, priority 2012, dated 2017)

Each compound was assayed against Human CGRP Receptor (Homo sapiens (Human), UniProt O60894+Q16602) (assay: Radioligand binding assay, [125I]-CGRP displacement on SK-N-MC membranes).
Sequence of Human CGRP Receptor (Q16602 23-461): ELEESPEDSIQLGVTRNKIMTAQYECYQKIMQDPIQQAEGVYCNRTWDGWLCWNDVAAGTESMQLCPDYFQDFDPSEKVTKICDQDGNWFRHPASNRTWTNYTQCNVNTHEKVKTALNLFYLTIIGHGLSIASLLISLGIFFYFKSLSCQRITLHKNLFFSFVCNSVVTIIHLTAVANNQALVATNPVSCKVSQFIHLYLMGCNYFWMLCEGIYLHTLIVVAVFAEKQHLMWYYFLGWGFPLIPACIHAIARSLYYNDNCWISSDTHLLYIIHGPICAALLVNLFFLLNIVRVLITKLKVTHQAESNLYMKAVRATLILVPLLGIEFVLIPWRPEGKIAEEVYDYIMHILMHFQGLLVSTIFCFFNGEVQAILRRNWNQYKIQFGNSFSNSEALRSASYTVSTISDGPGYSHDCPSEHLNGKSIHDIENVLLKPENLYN
Sequence of Human CGRP Receptor (O60894 27-148): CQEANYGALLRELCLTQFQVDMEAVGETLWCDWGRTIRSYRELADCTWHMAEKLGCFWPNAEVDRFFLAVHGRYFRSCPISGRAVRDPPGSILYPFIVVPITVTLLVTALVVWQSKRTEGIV
Method: Tissue Culture. SK-N-MC cells were grown at 37° C. in 5% CO2 as a monolayer in medium consisting of MEM with Earle's salts and L-glutamine (Invitrogen) supplemented with 10% fetal bovine serum (Invitrogen).
Membrane Preparation. Crude membranes were prepared from SK-N-MC cells expressing CGRP receptors. […] The cells were transferred from plates to polypropylene tubes (16×100 mm) and homogenized using a polytron. Homogenates were centrifuged at 32,000×g for 30 min. The pellets were resuspended in cold hypotonic lysis buffer with 0.1% mammalian protease inhibitor cocktail (Sigma) and assayed for protein concentration. The SK-N-MC homogenate was aliquoted and stored at −80° C.
Radioligand Binding Assay. The compounds of invention were solubilized and carried through serial dilutions using 100% DMSO. Aliquots from the compound serial dilutions were further diluted 25 fold into assay buffer (50 mM Tris-Cl pH 7.5, 5 mM MgCl2, 0.005% Triton X-100) and transferred (volume 50 μl) into 96 well assay plates. […] SK-N-MC membranes were thawed, diluted in assay buffer with fresh 0.1% mammalian protease inhibitor cocktail (Sigma), and re-homogenized. SK-N-MC homogenate (7 μg/well) was added in a volume of 100 μl. The assay plates were then incubated at room temperature for 2 h. Assays were stopped by addition of excess cold wash buffer (50 mM Tris-Cl pH 7.5, 0.1% BSA) immediately followed by filtration over glass fiber filters (Whatman GF/B) previously soaked in 0.5% PEI. Non-specific binding was defined with 1 μM beta-CGRP (Bachem). Protein bound radioactivity was determined using a gamma or scintillation counter. […] All compounds of invention were evaluated in at least two separate experiments.
Compound `Cc1cc(CC(OC(=O)N2CCC(c3cc4ccccc4[nH]c3=O)CC2)c2ncc3n2CCN(Cc2ccccc2)C3)cc2cn[nH]c12` (racemic) [Example 1, (±)-1-(7-Benzyl-5,6,7,8-tetrahydroimidazo[1,5-c]pyrazin-3-yl)-2-(7-methyl-1H-indazol-5-yl)ethyl 4-(2-oxo-1,2-dihydroquinolin-3-yl)piperidine-1-carboxylate] has an IC50 of 0.26 nM. Compound `CCN1CCn2c(cnc2C(Cc2cc(C)c3[nH]ncc3c2)OC(=O)N2CCC(c3cc4ccccc4[nH]c3=O)CC2)C1` (racemic) [Example 2, (±)-1-(7-ethyl-5,6,7,8-tetrahydroimidazo[1,5-a]pyrazin-3-yl)-2-(7-methyl-1H-indazol-5-yl)ethyl 4-(2-oxo-1,2-dihydroquinolin-3-yl)piperidine-1-carboxylate] has an IC50 of 1.7 nM. For `Cc1cc(CC(OC(=O)N2CCC(c3cc4ccccc4[nH]c3=O)CC2)c2ncc3n2CCNC3)cc2cn[nH]c12` (racemic) [Example 3, (±)-2-(7-methyl-1H-indazol-5-yl)-1-(5,6,7,8-tetrahydroimidazo[1,5-a]pyrazin-3-yl)ethyl 4-(2-oxo-1,2-dihydroquinolin-3-yl)piperidine-1-carboxylate], the IC50 was 2.95 nM. `Cc1cc(CC(OC(=O)N2CCC(c3cc4ccccc4[nH]c3=O)CC2)c2ncc3n2CCN(C2CCCCC2)C3)cc2cn[nH]c12` (racemic) [Example 4, (±)-1-(7-Cyclohexyl-5,6,7,8-tetrahydroimidazo[1,5-a]pyrazin-3-yl)-2-(7-methyl-1H-indazol-5-yl)ethyl 4-(2-oxo-1,2-dihydroquinolin-3-yl)piperidine-1-carboxylate] gave an IC50 of 0.22 nM.
